Where two headings read alike, the source gives them in different places.

The test system of one series is SKOV-3. Nature of the series: MTT viability assay, SKOV-3. The series is classed as cell-based. Conditions: Homo sapiens; for IC50: SK-OV-3, 24 h. Here is the method:
(§1) Cell viability was assessed with the MTT test and with lactate dehydrogenase (LDH) release assay. As per the MTT method, normal and cancer cells were seeded into 96-well plates at high density and allowed to attach overnight. Then they were incubated in a medium containing 1.25 mg/mL of the MTT salt [3-(4,5-dimethylthiazol-2-yl)-2,5-diphenyltetrazolium bromide] for 24 h at 37°C. The generated formazan was solubilized with 20% sodium dodecyl sulphate and 50% N,N-dimethylformamide. Absorbance of the converted dye was recorded at 595 nm with a reference wavelength of 690 nm.
(§2) In order to examine the effect of 3,3′,4,4′-THS on the viability of ovarian cancer cells and to compare its activity with RVT, subconfluent cultures of A2780, OVCAR-3, and SKOV-3 cells were subjected to a wide range of stilbene concentrations (0–500 μM) for 24 h; then MTT and LDH release assays were performed.

A short description of series [1]: MTT viability assay, HOSE cells. The series is classed as cell-based, human. The conditions noted are these: human, percentage of control cells. The method, then:
as §1, §2

A short description of series [2]: MTT viability assay, HPMCs. The conditions noted are these: human, percentage of control cells. The series is classed as cell-based, human. Here is the method:
as §1, §2

Series [3] can be described thus: LDH release assay, HOSE cells. The series is classed as cell-based, human. Conditions: human, percentage of control cells.
The nature of another series: LDH release assay, HPMCs. The series is classed as cell-based, human. The conditions noted are these: human, percentage of control cells.
The test system of series [4] is SKOV-3 cells. Nature of the series: ROS production (H2DCFDA), SKOV-3. The series is classed as cell-based, human. The conditions noted are these: 24 h, 10, 50, 100 μM tested. Here is the method: (§3) ROS production was assessed in cells probed with a fluorescent dye, 2′,7′-dichlorodihydrofluorescein diacetate (H2DCFDA; 5 μM) (Molecular Probes, Eugene, USA) for 45 min at 37°C. Fluorescence intensity in cell lysates was monitored in a Victor2 spectrofluorometer with excitation at 485 nm and emission at 535 nm.

In a further series the test system is HPMCs. Description: ROS production (H2DCFDA), HPMCs. The series is classed as cell-based, human. Conditions: 24 h, percentage of control cells. The method, then: as §3
Series [5] concerns catalase (CAT). Nature of the series: CAT activity, HOSE cells. It counts as cell-based, human. The conditions noted are these: 24 h, percentage of control cells. Here is the method: (§4) Total activity of superoxide dismutase (SOD) was measured in cell lysates with a commercially available kit (R&D Systems Europe, Abingdon, UK), while the activity of catalase (CAT) was estimated by using the OxiSelect Catalase Activity Assay Kit (Cell Biolabs Inc., San Diego, CA, USA). Both assays were performed according to the manufacturer's instructions.

Series [6] deals with catalase (CAT). Description: CAT activity, HPMCs. The series is classed as cell-based, human. The conditions noted are these: 24 h, percentage of control cells. Here is the method: as §4
In series [7] the test system is SKOV-3 cells. Nature of the series: Oxidative DNA damage (8-OH-dG immunoassay), SKOV-3. The series is classed as cell-based, human. The conditions noted are these: 24 h, 10, 50, 100 μM tested. The method, then: (§5) Oxidative DNA damage was assessed by measuring the 8-OH-dG concentration with a competitive immunoassay (Cell Biolabs Inc.), as per manufacturer's instructions. The efficiency of 8-OH-dG repair was estimated after cell recovery for 24 h in standard growth medium. In order to examine the activity of DNA glycosylase I, reverse transcription PCR was performed. RNA extraction was carried out using the RNA Bee (Tel-Test, Friendswood, Texas, USA) and purified according to the manufacturer's protocol. One microgram of RNA was reverse transcribed into cDNA with random hexamer primers, and cDNA was subjected to PCR. The profile of the replication cycles was denaturation at 94°C for 50 s, annealing at 58°C for 50 s, and polymerization at 72°C for 1 min. In each reaction, the expression of glyceraldehyde-3-phosphate dehydrogenase (GAPDH) served as the internal control. The primers used for PCR were as follows: hOGG1 forward, 5′-[…]-3′; hOGG1 reverse, 5′-TAGCCCGCCCTGTTCTTC-3′ designed to amplify a 551-bp region; GAPDH forward, 5′-CCATGGAGAAGGCTGGGG-3′; and GAPDH reverse 5′-[…]-3′ designed to amplify a 194-bp region (total number of cycles: 28). The PCR products were separated on 3% agarose gels stained with ethidium bromide and then visualized.

Series [8] concerns OVCAR-3 cells. Description: Apoptosis (Hoechst 33258), OVCAR-3. It counts as cell-based, human. Conditions: 24 h, 10, 50, 100 μM tested. Here is the method: (§6) Identification of apoptosis was based on the presence of DNA condensation in cells stained with a fluorescent dye, Hoechst 33258 (Molecular Probes, Eugene, OR). Cells were grown on Lab-Tek Chamber Slides (Nunc, Roskilde, Denmark), fixed with 4% formaldehyde for 10 min and washed twice with PBS. Then the cells were incubated with Hoechst 33258 (0.1 μg/mL) for 5 min in the dark. After washing with PBS, stained nuclei were observed and counted under a Zeiss Axio Observer D1 fluorescence microscope (Carl Zeiss, Jena, Germany). The activity of caspases 3, 8, and 9 was quantified in the cell lysates using specific colorimetric kits (Abcam, Cambridge, UK) according to the manufacturer's instructions.

For series [9], the system named is SKOV-3 cells. Description: Apoptosis (Hoechst 33258), SKOV-3. The conditions noted are these: 24 h, 10, 50, 100 μM tested. The series is classed as cell-based, human. Here is the method:
as §6

The subject of series [10] is OVCAR-3 cells. Nature of the series: SA-β-Gal activity (senescence), OVCAR-3. The series is classed as cell-based, human. The conditions noted are these: 24 h, 10, 50, 100 μM tested. The method, then:
The activity of SA-β-Gal in the cell extracts was quantified by measuring the rate of conversion of 4-methylumbelliferyl-β-D-galactopyranoside to 4-methylumbelliferone, as described in [19]. In order to visualize expression of the enzyme in the cancer cell cytoplasm, cytochemical staining for SA-β-Gal was performed according to Dimri et al..

The subject of series [11] is DNA glycosylase I (hOgg1). Description: DNA glycosylase I (hOgg1) mRNA expression (RT-PCR), ovarian cancer cells. It counts as cell-based, human. The conditions noted are these: all three cancer cell lines; after preincubation with stilbene, 24-h recovery. The method, then:
as §5

Where [12] appears, read: CalcuSyn, read-out: IC50, MTT assay.

In the case of `Oc1ccc(/C=C/c2ccc(O)c(O)c2)cc1O` [3,3′,4,4′-THS, 3,3′,4,4′-tetrahydroxy-trans-stilbene], the viability at 10 µM in the series on SKOV-3 (SK-OV-3, 10 μM, 24 h, percentage of control cells) came to 40 ± 2%. Further, the viability at 50 µM in the series with SKOV-3 (SK-OV-3, 50 μM, 24 h, percentage of control cells) was 39 ± 4%. For the same molecule, in the series on SKOV-3 (SK-OV-3, 100 μM, 24 h, percentage of control cells), the viability at 100 µM stood at 35 ± 2%. For the same molecule, the IC50 is 8 µM in the series with SKOV-3 (setting [12]); 8 to 10 µM in the series on SKOV-3 (read-out: IC50 (range over MTT and LDH release assays)). Besides, the viability at 24 h, 10 µM in series [1] (10 μM) amounted to 105 ± 2%; in series [2] (10 μM), 108 ± 14%; in [3] (10 μM), 101 ± 2%; in the series “LDH release assay, HPMCs” (10 μM) it was 101 ± 2%. Besides, the viability at 24 h, 50 µM in [1] (50 μM) turned out to be 100 ± 4%; in series [2] (50 μM) it was 100 ± 4%; in series [3] (50 μM), 100 ± 4%; in the series “LDH release assay, HPMCs” (50 μM), 100 ± 4%. Further, the viability at 24 h, 100 µM in series [1] (100 μM) worked out at 107 ± 2%; in [2] (100 μM) it was 102 ± 2%; in [3] (100 μM), 102 ± 2%; in “LDH release assay, HPMCs” (100 μM), 102 ± 2%. Further, the “generation of ROS, effect in words” value in the series with SKOV-3 cells [4] is listed as “remarkably stronger”. Further, the results for the ROS in the series with HPMCs (10 μM), with HPMCs (50 μM) and in the series on HPMCs (100 μM) were 104 ± 4%, 102 ± 3% and 82 ± 1^∗# %, respectively. In addition, the CAT in the series on catalase (CAT) [5] (10 μM) is listed as 132 ± 1^∗# %; with catalase (CAT) [5] (50 μM), 163 ± 4^∗# %; in the series on catalase (CAT) [5] (100 μM), 162 ± 1^∗# %; in the series with catalase (CAT) [6] (10 μM), 112 ± 2^∗# %; with catalase (CAT) [6] (50 μM), 123 ± 4^∗# %; with catalase (CAT) [6] (100 μM), 154 ± 1^∗# %. In the series with SKOV-3 cells [7], the “concentration of 8-OH-dG (oxidative DNA damage), effect in words” value is “increasing the concentration of 8-OH-dG in the OVCAR-3 and SKOV-3 cells starting from a dose of 10 μM”. Also, the “incidence of apoptosis (rise in percentage of death cells), effect in words” value in the series on OVCAR-3 cells [8] and in the series on SKOV-3 cells [9] was “evident starting from the lowest concentration of 10 μM” each time. Further, the “SA-β-Gal activity (senescence), effect in words” value in the series with OVCAR-3 cells [10] is “significantly greater than those of RVT at each concentration”. Moreover, the “hOgg1 mRNA expression during recovery, in words” value in series [11] is “remarkably lower as compared to values characterizing cells subjected to RVT”.

Consider `Oc1ccc(/C=C/c2cc(O)cc(O)c2)cc1` [RVT, 3,4′,5-trihydroxy-trans-stilbene, reference compound], for which the IC50 in the series with SKOV-3 (setting [12]) is 380 µM. Besides, the “generation of ROS, effect in words” value in the series with SKOV-3 cells [4] is listed as “stimulated the release of ROS”. Also, the ROS is 108 ± 4^∗ % in the series on HPMCs (10 μM), 106 ± 11% in the series with HPMCs (50 μM) and 105 ± 7% with HPMCs (100 μM). Besides, the CAT was 121 ± 6^∗ % in the series on catalase (CAT) [5] (10 μM); 119 ± 4^∗ % in the series on catalase (CAT) [5] (50 μM); 121 ± 6^∗ % in the series on catalase (CAT) [5] (100 μM); 101 ± 1% in the series with catalase (CAT) [6] (10 μM); 103 ± 4% in the series with catalase (CAT) [6] (50 μM); 118 ± 3^∗ % in the series on catalase (CAT) [6] (100 μM). The “concentration of 8-OH-dG (oxidative DNA damage), effect in words” value with SKOV-3 cells [7] was “induced DNA injury in A2780 and SKOV-3 at 50 and 100 μM”. Moreover, the “incidence of apoptosis (rise in percentage of death cells), effect in words” value in the series with OVCAR-3 cells [8] was “at 100 μM for the OVCAR-3 cells”; in the series on SKOV-3 cells [9], “exhibiting its impact at concentrations of 50 and 100 μM for the A2780 and SKOV-3 cells”. Also, the “SA-β-Gal activity (senescence), effect in words” value with OVCAR-3 cells [10] is “cellular senescence was elicited”.

(Values after paper PMC4502315, “High Potency of a Novel Resveratrol Derivative, 3,3′,4,4′-Tetrahydroxy-trans-stilbene, against Ovarian Cancer Is Associated with an Oxidative Stress-Mediated Imbalance between DNA Damage Accumulation and Repair” (Oxidative Medicine and Cellular Longevity, 2015).)
